# Measured values: paper PMC6199744, “Development of Chemical Proteomics for the Folateome and Analysis of the Kinetoplastid Folateome” (ACS Infectious Diseases, 2018)
# Values joined by “and” are separate entries in the source; they are usually repeats but may differ in a detail not shown here. Equal values may be shown once. Read-outs that look alike come from different tables or passages of the source.
# System: T. brucei lysate proteins
# Format: binding, Trypanosoma brucei
compound,measurement,setting,value
NCCCNc1ccc(C(=O)NC(CCC(=O)O)C(=O)O)cc1 (stereo not shown) [compound 7],fold change vs vehicle control,,0.96 and 1.1 and 0.99
same,fold change,"protein CZB00000046.1 HA-UBIQUITIN, vehicle control = 1",0.74
same,fold change,"protein RHS6A, vehicle control = 1",0.95
same,fold change vs vehicle control,"protein TB09.160.3270 ATP-DEPENDENT DEAD BOX HELICASE, PUTATIVE, vehicle control = 1",0.89
same,fold change,"protein TB09.160.3710 PRO[…] NUCLEAR ANTIGEN (PCNA), PUTATIVE, vehicle control = 1",0.81
same,fold change vs vehicle control,"protein TB09.160.4200 60S ACIDIC RIBOSOMAL PROTEIN, PUTATIVE, vehicle control = 1",0.64
same,fold change vs vehicle control,"protein TB09.160.4250 TR[…], vehicle control = 1",0.94
same,fold change vs vehicle control,"protein TB09.211.2630 60S RIBOSOMAL PROTEIN L23, PUTATIVE, vehicle control = 1",0.98
same,fold change,"protein TB09.211.4460 ADP-RI[…], PUTATIVE, vehicle control = 1",0.93
same,fold change,"protein TB09.211.4513 KIN[…] PROTEIN KMP-11, vehicle control = 1",0.88
same,fold change,"protein TB09.211.4760 METACASPASE 5, PUTATIVE, vehicle control = 1",1.1
same,fold change vs vehicle control,"protein TB09.244.2780 HY[…], CONSERVED, vehicle control = 1",1.54
same,fold change,"protein TB11.01.0450 PROTEIN PHOSPHATASE 1, PUTATIVE, vehicle control = 1",1
same,fold change vs vehicle control,"protein TB11.01.2560 40S RIBOSOMAL PROTEIN SA, PUTATIVE, vehicle control = 1",0.82
same,fold change vs vehicle control,"protein TB11.01.3180 GUANINE NUCLEOTIDE-BINDING PROTEIN BETA SUBUNIT-LIKE PROTEIN, vehicle control = 1",0.93
same,fold change vs vehicle control,"protein TB11.01.4370 HY[…], CONSERVED, vehicle control = 1",0.8
same,fold change,"protein TB11.01.5350 PROFILIN, vehicle control = 1",0.98
same,fold change,"protein TB11.01.5860 T-COMPLEX PROTEIN 1, EPSILON SUBUNIT, PUTATIVE, vehicle control = 1",0.91
same,fold change,"protein TB11.01.8590 RAB-LIKE 5, SMALL G PROTEIN, vehicle control = 1",0.85
same,fold change,"protein TB11.01.8740 PROTEIN PHOSPHATASE 4, PUTATIVE, vehicle control = 1",0.77
same,fold change vs vehicle control,"protein TB11.02.2040 HY[…], CONSERVED (ALBA-Domain Protein), vehicle control = 1",0.84
same,fold change vs vehicle control,"protein TB11.02.2420 HY[…], CONSERVED, vehicle control = 1",0.99
same,fold change vs vehicle control,"protein TB11.02.2640 DYNEIN IN[…] IC78, PUTATIVE, vehicle control = 1",1.17
same,fold change,"protein TB11.02.2960 MIT[…] PROTEIN, PUTATIVE, vehicle control = 1",0.88
same,fold change vs vehicle control,"protein TB11.02.4170 40S RIBOSOMAL PROTEIN S5, PUTATIVE, vehicle control = 1",1.18
same,fold change,"protein TB11.02.4700 14-3-3 PROTEIN, vehicle control = 1",1
same,fold change vs vehicle control,"protein TB11.03.0250 C[…], vehicle control = 1",0.88
same,fold change vs vehicle control,"protein TB11.03.0530 HY[…], CONSERVED (hy[…] SCD6.10), vehicle control = 1",1.76
same,fold change vs vehicle control,"protein TB427TMP.01.0480 HY[…], CONSERVED, vehicle control = 1",1
same,fold change,"protein TB427TMP.01.1470 60S RIBOSOMAL PROTEIN L10A, PUTATIVE, vehicle control = 1",0.84
same,fold change vs vehicle control,"protein TB427TMP.01.4280 HY[…], CONSERVED, vehicle control = 1",1.2
same,fold change vs vehicle control,"protein TB427TMP.01.5680 HY[…], CONSERVED, vehicle control = 1",0.98
same,fold change vs vehicle control,"protein TB427TMP.01.5690 DRBD4, vehicle control = 1",0.89
same,fold change,"protein TB427TMP.01.5960 MIT[…] PROTEIN, PUTATIVE, vehicle control = 1",0.93
same,fold change vs vehicle control,"protein TB427TMP.01.6890 SMALL GTPASE, PUTATIVE, vehicle control = 1",1.8
same,fold change,"protein TB427TMP.01.7490 HY[…], CONSERVED, vehicle control = 1",0.96
same,fold change vs vehicle control,"protein TB427TMP.01.7530 HY[…], CONSERVED, vehicle control = 1",1
same,fold change,"protein TB427TMP.01.8390 HY[…], CONSERVED, vehicle control = 1",0.96
same,fold change,"protein TB427TMP.01.8570 DYNEIN LIGHT IN[…] D1BLIC, PUTATIVE, vehicle control = 1",0.95
same,fold change,"protein TB427TMP.02.0030 DYNEIN HEAVY CHAIN, PUTATIVE, vehicle control = 1",0.88
same,fold change,"protein TB427TMP.02.0460 NUCLEOPORIN, vehicle control = 1",0.98
same,fold change,"protein TB427TMP.02.0750 T-COMPLEX PROTEIN 1, ZETA SUBUNIT, PUTATIVE, vehicle control = 1",1
same,fold change,"protein TB427TMP.02.0760 DYNEIN HEAVY CHAIN, PUTATIVE, vehicle control = 1",0.91
same,fold change,"protein TB427TMP.02.1070 AMINOPEPTIDASE, PUTATIVE, vehicle control = 1",0.72
same,fold change vs vehicle control,"protein TB427TMP.02.1085 40S RIBOSOMAL PROTEIN S4, PUTATIVE, vehicle control = 1",0.78
same,fold change,"protein TB427TMP.02.1106 NUCLEOBASE/NUCLEOSIDE TRANSPORTER 8 1, vehicle control = 1",0.95
same,fold change vs vehicle control,"protein TB427TMP.02.2070 LONG-CHAIN-FATTY-ACID-COA LIGASE, PUTATIVE, vehicle control = 1",0.95
same,fold change vs vehicle control,"protein TB427TMP.02.2890 HY[…], CONSERVED, vehicle control = 1",1.22
same,fold change vs vehicle control,"protein TB427TMP.02.4300 HY[…], CONSERVED, vehicle control = 1",1.4
same,fold change,"protein TB427TMP.02.4550 HY[…], CONSERVED, vehicle control = 1",0.93
same,fold change vs vehicle control,"protein TB427TMP.02.5450 GLUCOSE-REGULATED PROTEIN 78, PUTATIVE, vehicle control = 1",0.97
same,fold change,"protein TB427TMP.02.5660 HY[…], CONSERVED, vehicle control = 1",0.82
same,fold change,"protein TB427TMP.03.0150 HY[…], CONSERVED, vehicle control = 1",0.91
same,fold change,"protein TB427TMP.160.2370 HY[…], CONSERVED, vehicle control = 1",0.91
same,fold change vs vehicle control,"protein TB427TMP.160.4620 INOSITOL-1(OR 4)-MONOPHOSPHATASE, PUTATIVE, vehicle control = 1",0.99
same,fold change vs vehicle control,"protein TB427TMP.160.4630 HY[…], CONSERVED, vehicle control = 1",0.83
same,fold change,"protein TB427TMP.160.4770 PROTEIN KINASE, PUTATIVE, vehicle control = 1",0.89
same,fold change,"protein TB427TMP.160.5670 HY[…], CONSERVED, vehicle control = 1",1.47
same,fold change,"protein TB427TMP.211.0740 P21 ANTIGEN PROTEIN, PUTATIVE, vehicle control = 1",0.79
same,fold change,"protein TB427TMP.211.0930 POLYADENYLATE-BINDING PROTEIN 1 (POLY(A)-BINDING PROTEIN 1) (PABP 1), vehicle control = 1",0.89
same,fold change,"protein TB427TMP.211.2460 HY[…], CONSERVED, vehicle control = 1",0.96
same,fold change vs vehicle control,"protein TB427TMP.211.2570 T-COMPLEX PROTEIN 1, ETA SUBUNIT, PUTATIVE, vehicle control = 1",0.8
same,fold change vs vehicle control,"protein TB427TMP.211.3140 HY[…], CONSERVED, vehicle control = 1",2.05
same,fold change vs vehicle control,"protein TB427TMP.211.3510 ATP-DEPENDENT DEAD/H RNA HELICASE, PUTATIVE, vehicle control = 1",0.97
same,fold change vs vehicle control,"protein TB427TMP.211.4170 HY[…], CONSERVED, vehicle control = 1",1.18
same,fold change vs vehicle control,"protein TB427TMP.22.0003 PHOSPH[…], PUTATIVE, vehicle control = 1",1.32
same,fold change,"protein TB427TMP.244.2840 HY[…], CONSERVED, vehicle control = 1",0.93
same,fold change,"protein TB427TMP.47.0011 HY[…], CONSERVED, vehicle control = 1",0.87
same,fold change vs vehicle control,"protein TB427TMP.55.0006 INTR[…] PROTEIN IFT88, vehicle control = 1",0.91
same,fold change vs vehicle control,"protein TB427.01.120 RETRO[…] SPOT (RHS) PROTEIN, PUTATIVE, vehicle control = 1",0.9
same,fold change,"protein TB427.01.2570 COATOMER BETA SUBUNIT, vehicle control = 1",0.94
same,fold change,"protein TB427.01.5030 LEUCINE-RICH REPEAT PROTEIN (LRRP), PUTATIVE, vehicle control = 1",0.98
same,fold change vs vehicle control,"protein TB427.02.2970 MIT[…] PROTEIN, PUTATIVE, vehicle control = 1",1.23
same,fold change vs vehicle control,"protein TB427.02.3880 HET[…] RIBONUC[…]/F, PUTATIVE, vehicle control = 1",1.22
same,fold change vs vehicle control,"protein TB427.03.1210 PROTEIN TRANSPORT PROTEIN SEC24, vehicle control = 1",1.18
same,fold change vs vehicle control,"protein TB427.03.3160 POLY(A) POLYMERASE, vehicle control = 1",1.17
same,fold change vs vehicle control,"protein TB427.03.3950 HY[…], CONSERVED, vehicle control = 1",0.95
same,fold change vs vehicle control,"protein TB427.03.4040 HY[…], CONSERVED (Ankyrinrepeat), vehicle control = 1",1.73
same,fold change vs vehicle control,"protein TB427.04.1080 V-TYPE ATPASE, A SUBUNIT, PUTATIVE, vehicle control = 1",1.34
same,fold change,"protein TB427.04.1090 ENDOSOMAL INTEGRAL MEMBRANE PROTEIN, PUTATIVE, vehicle control = 1",1.3
same,fold change,"protein TB427.04.1300 HY[…], CONSERVED, vehicle control = 1",0.92
same,fold change vs vehicle control,"protein TB427.04.1660 MIT[…] PROTEIN, PUTATIVE, vehicle control = 1",0.89
same,fold change,"protein TB427.04.310 HY[…], CONSERVED, vehicle control = 1",0.56
same,fold change,"protein TB427.04.3890 ATP-DEPENDENT RNA HELICASE, PUTATIVE, vehicle control = 1",0.88
same,fold change,"protein TB427.04.420 PHOSPHATIDYLINOSITOL 3-KINASE (TOR2), vehicle control = 1",0.71
same,fold change,"protein TB427.04.450 COATOMER ALPHA SUBUNIT, PUTATIVE, vehicle control = 1",0.89
same,fold change,"protein TB427.04.5010 CALRETICULIN, PUTATIVE, vehicle control = 1",0.83
same,fold change,"protein TB427.04.5200 NUCLEOPORIN (NUP54/57), PUTATIVE, vehicle control = 1",0.99
